# According to PubChem BioAssay (NCI):
#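 These data come from cells grown in 96-well plates and exposed to compound for 48 hours at five concentrations. GI50: concentration for 50% inhibition of growth. The concentration for full growth arrest is given as TGI.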
# Legend:
# Test in all cases: DTP human tumour cell line panel, 48 h
# [1] = system: CCRF-CEM leukemia
# [2] = system: MDA-N
# [3] = system: EKVX NSCLC
# [4] = system: M14 melanoma
# [5] = system: MDA-MB-231 breast
# [6] = system: IGROV1 ovarian
# [7] = system: NCI-H23 lung
# [8] = system: HT29 colon
# [9] = system: SF-268 CNS
# [10] = system: HCT-116 colon
# [11] = system: SK-MEL-2 melanoma
# [12] = system: SN12C renal
# [13] = system: HL-60(TB) leukemia
# [14] = system: HOP-92 NSCLC
# [15] = system: SW-620 colon
# [16] = system: HS 578T breast
# [17] = system: COLO 205 colon
# [18] = system: A549 NSCLC
# [19] = system: SF-539 CNS
# [20] = system: K-562 leukemia
# [21] = system: OVCAR-3 ovarian
# [22] = system: MOLT-4 leukemia
# [23] = system: DU-145 prostate
# [24] = system: NCI/ADR-RES ovarian
# [25] = system: NCI-H226 lung
# [26] = system: MALME-3M melanoma
# [27] = system: A498 renal
# [28] = system: UACC-257 melanoma
# [29] = system: TK-10 renal
# [30] = system: SK-MEL-5 melanoma
# [31] = system: SNB-19 CNS
# [32] = system: OVCAR-8 ovarian
# [33] = system: RXF 393 renal
# [34] = system: MDA-MB-435
# [35] = system: KM12 colon
# [36] = system: HOP-62 NSCLC
# [37] = system: SK-MEL-28 melanoma
# [38] = system: ACHN renal
# [39] = system: NCI-H460 lung
# [40] = system: PC-3 prostate
# [41] = system: CAKI-1 renal
# [42] = system: HCC-2998 colon
# [43] = system: SK-OV-3 ovarian
# [44] = system: HCT-15 colon
# [45] = system: SR leukemia
# [46] = system: NCI-H522 lung
# [47] = system: MCF7 breast
# [48] = system: U251 CNS
# [49] = system: LOX IMVI melanoma
# [50] = system: T-47D breast
# [51] = system: SF-295 CNS
# [52] = system: OVCAR-5 ovarian
# [53] = system: 786-0 renal
# [54] = system: UACC-62 melanoma
# [55] = system: OVCAR-4 ovarian
# [56] = system: BT-549 breast
# [57] = system: UO-31 renal
# [58] = system: RPMI-8226 leukemia
smiles,measurement,setting,value
NC1=C(c2nc(-c3cc4ccccc4oc3=O)cs2)C(c2ccco2)c2c(c3ccccc3oc2=O)O1 (configuration not stated),GI50,[1],53.8 µg/mL
same,TGI,[1],147 µg/mL
same,GI50,[2],> 150 µg/mL
same,TGI,[2],> 150 µg/mL
same,GI50,[3],69.7 µg/mL
same,TGI,[3],> 150 µg/mL
same,GI50,[4],100 µg/mL
same,TGI,[4],> 150 µg/mL
same,GI50,[5],75.7 µg/mL
same,TGI,[5],> 150 µg/mL
same,GI50,[6],> 150 µg/mL
same,TGI,[6],> 150 µg/mL
same,GI50,[7],> 150 µg/mL
same,TGI,[7],> 150 µg/mL
same,GI50,[8],> 150 µg/mL
same,TGI,[8],> 150 µg/mL
same,GI50,[9],68.4 µg/mL
same,TGI,[9],> 150 µg/mL
same,GI50,[10],> 150 µg/mL
same,TGI,[10],> 150 µg/mL
same,GI50,[11],43.6 µg/mL
same,TGI,[11],112 µg/mL
same,GI50,[12],> 150 µg/mL
same,TGI,[12],> 150 µg/mL
same,GI50,[13],> 150 µg/mL
same,TGI,[13],> 150 µg/mL
same,GI50,[14],53.3 µg/mL
same,TGI,[14],> 150 µg/mL
same,GI50,[15],> 150 µg/mL
same,TGI,[15],> 150 µg/mL
same,GI50,[16],39.6 µg/mL
same,TGI,[16],139 µg/mL
same,GI50,[17],> 150 µg/mL
same,TGI,[17],> 150 µg/mL
same,GI50,[18],> 150 µg/mL
same,TGI,[18],> 150 µg/mL
same,GI50,[19],96.9 µg/mL
same,TGI,[19],> 150 µg/mL
same,GI50,[20],95.9 µg/mL
same,TGI,[20],> 150 µg/mL
same,GI50,[21],> 150 µg/mL
same,TGI,[21],> 150 µg/mL
same,GI50,[22],119 µg/mL
same,TGI,[22],> 150 µg/mL
same,GI50,[23],> 150 µg/mL
same,TGI,[23],> 150 µg/mL
same,GI50,[24],> 150 µg/mL
same,TGI,[24],> 150 µg/mL
same,GI50,[25],43.1 µg/mL
same,TGI,[25],131 µg/mL
same,GI50,[26],120 µg/mL
same,TGI,[26],> 150 µg/mL
same,GI50,[27],66.1 µg/mL
same,TGI,[27],> 150 µg/mL
same,GI50,[28],> 150 µg/mL
same,TGI,[28],> 150 µg/mL
same,GI50,[29],46.4 µg/mL
same,TGI,[29],87.6 µg/mL
same,GI50,[30],> 150 µg/mL
same,TGI,[30],> 150 µg/mL
same,GI50,[31],53.1 µg/mL
same,TGI,[31],> 150 µg/mL
same,GI50,[32],> 150 µg/mL
same,TGI,[32],> 150 µg/mL
same,GI50,[33],17.3 µg/mL
same,TGI,[33],114 µg/mL
same,GI50,[34],> 150 µg/mL
same,TGI,[34],> 150 µg/mL
same,GI50,[35],> 150 µg/mL
same,TGI,[35],> 150 µg/mL
same,GI50,[36],22.4 µg/mL
same,TGI,[36],81.1 µg/mL
same,GI50,[37],> 150 µg/mL
same,TGI,[37],> 150 µg/mL
same,GI50,[38],36.3 µg/mL
same,TGI,[38],> 150 µg/mL
same,GI50,[39],> 150 µg/mL
same,TGI,[39],> 150 µg/mL
same,GI50,[40],> 150 µg/mL
same,TGI,[40],> 150 µg/mL
same,GI50,[41],> 150 µg/mL
same,TGI,[41],> 150 µg/mL
same,GI50,[42],> 150 µg/mL
same,TGI,[42],> 150 µg/mL
same,GI50,[43],51.4 µg/mL
same,TGI,[43],> 150 µg/mL
same,GI50,[44],> 150 µg/mL
same,TGI,[44],> 150 µg/mL
same,GI50,[45],51.9 µg/mL
same,TGI,[45],> 150 µg/mL
same,GI50,[46],> 150 µg/mL
same,TGI,[46],> 150 µg/mL
same,GI50,[47],> 150 µg/mL
same,TGI,[47],> 150 µg/mL
same,GI50,[48],21.7 µg/mL
same,TGI,[48],58.4 µg/mL
same,GI50,[49],> 150 µg/mL
same,TGI,[49],> 150 µg/mL
same,GI50,[50],> 150 µg/mL
same,TGI,[50],> 150 µg/mL
same,GI50,[51],130 µg/mL
same,TGI,[51],> 150 µg/mL
same,GI50,[52],> 150 µg/mL
same,TGI,[52],> 150 µg/mL
same,GI50,[53],20.2 µg/mL
same,TGI,[53],71.3 µg/mL
same,GI50,[54],112 µg/mL
same,TGI,[54],> 150 µg/mL
same,GI50,[55],68.3 µg/mL
same,TGI,[55],> 150 µg/mL
CNC(Cc1ccccc1)c1cccc(OC)c1O (configuration not stated),TGI,[2],> 100 µM
same,TGI,[3],> 100 µM
same,TGI,[4],> 100 µM
same,TGI,[5],> 100 µM
same,TGI,[6],> 100 µM
same,TGI,[7],> 100 µM
same,TGI,[8],> 100 µM
same,TGI,[9],> 100 µM
same,TGI,[10],> 100 µM
same,TGI,[11],> 100 µM
same,TGI,[12],> 100 µM
same,TGI,[14],> 100 µM
same,TGI,[15],> 100 µM
same,TGI,[16],> 100 µM
same,TGI,[18],> 100 µM
same,TGI,[20],> 100 µM
same,TGI,[21],> 100 µM
same,TGI,[22],> 100 µM
same,TGI,[23],> 100 µM
same,TGI,[24],> 100 µM
same,TGI,[25],> 100 µM
same,TGI,[26],> 100 µM
same,TGI,[27],> 100 µM
same,TGI,[56],> 100 µM
same,TGI,[28],53.9 µM
same,TGI,[29],> 100 µM
same,TGI,[30],> 100 µM
same,TGI,[31],> 100 µM
same,TGI,[32],> 100 µM
same,TGI,[33],> 100 µM
same,TGI,[34],> 100 µM
same,TGI,[35],> 100 µM
same,TGI,[36],> 100 µM
same,TGI,[57],> 100 µM
same,TGI,[37],> 100 µM
same,TGI,[38],> 100 µM
same,TGI,[39],> 100 µM
same,TGI,[40],> 100 µM
same,TGI,[41],> 100 µM
same,TGI,[44],> 100 µM
same,TGI,[45],> 100 µM
same,TGI,[46],> 100 µM
same,TGI,[48],> 100 µM
same,TGI,[49],> 100 µM
same,TGI,[50],60.4 µM
same,TGI,[51],> 100 µM
same,TGI,[52],> 100 µM
same,TGI,[53],> 100 µM
same,TGI,[54],> 100 µM
same,TGI,[55],> 100 µM
c1ccc(C2CC(N3CCOCC3)=Nc3ccccc3N2)cc1 (configuration not stated),TGI,[1],> 100 µM
same,TGI,[2],> 100 µM
same,TGI,[3],> 100 µM
same,TGI,[4],> 100 µM
same,TGI,[5],> 100 µM
same,TGI,[6],> 100 µM
same,TGI,[7],> 100 µM
same,TGI,[8],> 100 µM
same,TGI,[9],> 100 µM
same,TGI,[10],> 100 µM
same,TGI,[11],> 100 µM
same,TGI,[12],> 100 µM
same,TGI,[13],> 100 µM
same,TGI,[15],> 100 µM
same,TGI,[16],> 100 µM
same,TGI,[17],> 100 µM
same,TGI,[18],> 100 µM
same,TGI,[19],> 100 µM
same,TGI,[20],> 100 µM
same,TGI,[21],> 100 µM
same,TGI,[22],> 100 µM
same,TGI,[23],> 100 µM
same,TGI,[24],> 100 µM
same,TGI,[25],> 100 µM
same,TGI,[26],> 100 µM
same,TGI,[27],> 100 µM
same,TGI,[56],> 100 µM
same,TGI,[58],> 100 µM
same,TGI,[28],> 100 µM
same,TGI,[29],> 100 µM
same,TGI,[30],> 100 µM
same,TGI,[31],> 100 µM
same,TGI,[32],> 100 µM
same,TGI,[33],> 100 µM
same,TGI,[34],> 100 µM
same,TGI,[35],> 100 µM
same,TGI,[36],> 100 µM
same,TGI,[57],> 100 µM
same,TGI,[37],> 100 µM
same,TGI,[38],> 100 µM
same,TGI,[39],> 100 µM
same,TGI,[40],> 100 µM
same,TGI,[41],> 100 µM
same,TGI,[43],> 100 µM
same,TGI,[44],> 100 µM
same,TGI,[46],> 100 µM
same,TGI,[48],> 100 µM
same,TGI,[51],> 100 µM
same,TGI,[52],> 100 µM
same,TGI,[53],> 100 µM
same,TGI,[54],> 100 µM
same,TGI,[55],> 100 µM
